The source of these data is patent US6492563B2, “Fragrance precursors” (Givaudan SA, priority 2000, dated 2002).

Holding throughout (assay type): physicochemical
A short description of data set [1]: Photolysis of phenacyl acetals (I) in solution, mercury lamp, GC-FID. Also noted: key: 0: no cleavage; +: slow cleavage; ++: medium cleavage; +++: fast cleavage. Particulars: solution (ethanol), mercury lamp 150 W, Pyrex, one hour irradiation. As to the method:
Photorelease assays were conducted on solutions (typical concentrations of precursors (I): 0.05% to 0.1% g/v) in organic solvents (preferably ethanol) or on cotton towels after deposition of the phenacyl acetals (I), as described below in the example 3.
The solutions were irradiated with a mercury lamp (150 W) in a borosilicate glass apparatus (Pyrex®) so as to limit the irradiation window to mainly the UVA and UVB spectrum of sun light. The alcoholic solution was irradiated for one hour and samples taken every 15 minutes to analyze the extent of the photolysis.
The presence of the aryl ketone (II) and ester (III) after photolysis in solutions was determined by using GC retention times. Samples (0.2 μl) were injected (on column injection) without further dilution. Gas chromatography-flame ionization detection (GC-FID) was carried out with a Fisons-GC 8000 series apparatus, using a J&W Scientific DB-5 capillary column (30 m, 0.32 mm id, 0.25 μm film, He carrier gas, 85 kPa).
Whereas precursors derived from Oranger Crystals® cleaved fairly slowly (FIG. 1), those derived from acetanisole cleaved fast and Fixolide® precursors even faster. The rates are calculated from the GC analysis (corresponding peak area).

Data set [2] in a line: Stability tests in aqueous buffer solutions. The conditions noted are these: for Stability at pH 2.5: aqueous buffer pH 2.5, 24 h at 37° C.; for Stability at pH 7: aqueous buffer pH 7, 24 h at 37° C.; for Stability at pH 9.5: aqueous buffer pH 9.5, 24 h at 37° C.
The nature of data set [3]: Stability in washing liquor (washing conditions, OMO Progress base), HPLC. Particulars: for Stability at pH 11: pH 11, washing conditions as in example 5; for Amount ecovered / Recovered: washing liquor stirred one hour at room temperature; for Amount ecovered: extraction, HPLC; for Recovered: relative to amount incorporated. As to the method:
(§1) Washing tests were performed according to the following hand washing test cedure with OMO Progress® base which contains the following ingredients:
(§2) 1- The washing powder (2.1 g) containing the phenacyl acetal (I, about 21 mg, 1%) was dissolved in water (500 ml) at room temperature.
The washing liquor (2.1 g washing powder containing 1% phenacyl acetal (I) in 500 ml water), according to 1 in the above described washing procedure, was stirred during one hour at room temperature. Extraction with an organic solvent (preferably t-butyl methyl ether) to recover organic compounds and analysis with HPLC gave the amounts of recovered phenacyl acetal (I), table 4.

Data set [4] in a line: Hand washing tests: partition between water and fabric (substantivity), HPLC. The conditions noted are these: for Amounts recovered: Water: extract of aqueous washing liquor after hand washing; for Amounts recovered: Water, % (±10%): extract of aqueous washing liquor; for Amounts recovered: Water, % (±10%) / Amounts recovered: Towel extract, % (±10%): of amount incorporated; for Amounts recovered: Towel extract: extract of dried towels after hand washing; for Amounts recovered: Towel extract, % (±10%): extract of dried towels. How it is done: as §1, §2
2- The towels (35 g) were added to the liquor and mixed with a glass stick.
3- Towels were soaked for 45 minutes with stirring every 15 minutes.
4- The wringed towels were rinsed three times with fresh water (250 ml) with intermediate wringing.
5- Towels were allowed to dry in a dark and odorless place before analysis or evaluation.
The towels were extracted with an organic solvent (preferably t-butyl methyl ether) using a Dionex ASE200 Accelerated Solvent Extractor and the extracts were analyzed by HPLC (Hewlett Packard Series 1100, column: Zorbax Eclipse XDB-C18, dimensions 15 cm×4.6 mm×5 μm).
The washing liquor was extracted with an organic solvent (preferably t-butyl methyl ether, 250 ml) and analyzed by HPLC as above.
The aqueous liquors were extracted with an organic solvent (preferably t-butyl methyl ether) and analytical HPLC gave the results in table 5, which are related to partition between water and fabric.

For the compound `CCOC(C)OCC(=O)c1ccc(OC)cc1` (centres unmarked) [compound 1, 2-(1-Ethoxy-ethoxy)-1-(4-methoxy-phenyl)-ethanone], the “UV-test (release of aryl ketone (II) and ester (III), cleavage)” value (shortened to “UV-test”) in data set [1] is “++”. In addition, in data set [2], the “Stability at pH 2.5” value is “unstable”, the “Stability at pH 7” value was “stable” and the “Stability at pH 9.5” value is given as “stable”.

As for `COc1ccc(C(=O)COC(C)OCCc2ccccc2)cc1` (centres unmarked) [compound 2, 1-(4-Methoxy-phenyl)-2-(1-phenethyloxy-ethoxy)-ethanone], in data set [1], the “UV-test” value is “++”. In addition, in data set [2], the “Stability at pH 2.5” value is reported as “unstable”, the “Stability at pH 7” value is recorded as “stable” and the “Stability at pH 9.5” value is “stable”. Besides, in data set [3], the “Stability at pH 11” value is recorded as “stable”, the Amount ecovered stood at 18.5 mg and the Recovered worked out at 83%. For the same compound, in data set [4], the “Amounts recovered: Water” value came out at 15 mg; the “Amounts recovered: Water, % (±10%)” value worked out at 63%; the “Amounts recovered: Towel extract” value was 10.5 mg; the “Amounts recovered: Towel extract, % (±10%)” value turned out to be 44%.

For the compound `CC/C=C\CCOC(C)OCC(=O)c1ccc(OC)cc1` (centres unmarked) [compound 3, 2-(1-Hex-3(Z)-enyloxy-ethoxy)-1-(4-methoxy-phenyl)-ethanone], the “UV-test” value in data set [1] is on record as “++”. In addition, in data set [2], the “Stability at pH 2.5” value is given as “unstable”, the “Stability at pH 7” value is “stable” and the “Stability at pH 9.5” value is recorded as “stable”. Also, in data set [3], the “Stability at pH 11” value is on record as “stable”, the Amount ecovered stood at 22.3 mg and the Recovered was determined as 100%. In data set [4], the “Amounts recovered: Water” value was 13.3 mg; the “Amounts recovered: Water, % (±10%)” value was 59%; the “Amounts recovered: Towel extract” value was found to be 14 mg; the “Amounts recovered: Towel extract, % (±10%)” value worked out at 62%.

With `COc1ccc(C(=O)COC(C)OCCC(C)CC(C)(C)C)cc1` (centres unmarked) [compound 4, 1-(4-Methoxy-phenyl)-2-[1-(3,5,5-trimethyl-hexyloxy)-ethoxyl]-ethanone], the “UV-test” value in data set [1] was “++”. In data set [2], the “Stability at pH 2.5” value was “unstable”, the “Stability at pH 7” value is reported as “stable” and the “Stability at pH 9.5” value is listed as “stable”. In data set [3], the “Stability at pH 11” value was “stable”, the Amount ecovered turned out to be 23.5 mg and the Recovered came to 100%. In addition, in data set [4], the “Amounts recovered: Water” value is 17.5 mg; the “Amounts recovered: Water, % (±10%)” value is 75%; the “Amounts recovered: Towel extract” value came out at 8.9 mg; the “Amounts recovered: Towel extract, % (±10%)” value is 38%.

In the case of `CCCCCCOC(C)OCC(=O)c1ccc(OC)cc1` (centres unmarked) [compound 5, 2-(1-Hexyloxy-ethoxy)-1-(4-methoxy-phenyl)-ethanone], the “UV-test” value in data set [1] is listed as “++”. In data set [2], the “Stability at pH 2.5” value is “unstable”, the “Stability at pH 7” value is given as “stable” and the “Stability at pH 9.5” value was “stable”. Also, in data set [3], the “Stability at pH 11” value is reported as “stable”, the Amount ecovered is 25.7 mg and the Recovered came out at 100%. In data set [4], the “Amounts recovered: Water” value came out at 18.4 mg; the “Amounts recovered: Water, % (±10%)” value came out at 73%; the “Amounts recovered: Towel extract” value was 11.7 mg; the “Amounts recovered: Towel extract, % (±10%)” value was determined as 46%.

`COc1ccc(C(=O)COC(C)OCCCc2ccccc2)cc1` (centres unmarked) [compound 6, 1-(4-Methoxy-phenyl)-2-[1-(3-phenyl-propoxy)-ethoxy]-ethanone]: the “UV-test” value in data set [1] is “++”. In addition, in data set [2], the “Stability at pH 2.5” value is recorded as “unstable”, the “Stability at pH 7” value is reported as “stable” and the “Stability at pH 9.5” value is “stable”. Moreover, in data set [3], the “Stability at pH 11” value is given as “stable”, the Amount ecovered was determined as 20.8 mg and the Recovered was 94%. For the same compound, in data set [4], the “Amounts recovered: Water” value was 14.5 mg; the “Amounts recovered: Water, % (±10%)” value was determined as 65%; the “Amounts recovered: Towel extract” value was determined as 17 mg; the “Amounts recovered: Towel extract, % (±10%)” value amounted to 47%.

`COc1ccc(C(=O)COC(C)OCCC(C)CCC=C(C)C)cc1` (centres unmarked) [compound 7, 2-[1-(3,7-Dimethyl-oct-6-enyloxy)-ethoxy]-1-(4-methoxy-phenyl)-ethanone]: in data set [1], the “UV-test” value is on record as “++”.

Consider `CCCCCCOC(C)OCC(=O)c1cc2c(cc1C)C(C)(C)C(C)CC2(C)C` (centres unmarked) [compound 8, 1-(3,5,5,6,8,8-Hexamethyl-5,6,7,8-tetrahydro-naphthalen-2-yl)-2-(1-hexyloxy-ethoxy)-ethanone], for which the “UV-test” value in data set [1] was “+++”. Further, in data set [2], the “Stability at pH 2.5” value was “stable”, the “Stability at pH 7” value is “stable” and the “Stability at pH 9.5” value is given as “stable”. Besides, in data set [3], the “Stability at pH 11” value is “stable”, the Amount ecovered worked out at 22.2 mg and the Recovered is 99%. In data set [4], the “Amounts recovered: Water” value turned out to be 16.3 mg; the “Amounts recovered: Water, % (±10%)” value was 69%; the “Amounts recovered: Towel extract” value was 8.7 mg; the “Amounts recovered: Towel extract, % (±10%)” value came to 42%.

For `CC/C=C\CCOC(C)OCC(=O)c1cc2c(cc1C)C(C)(C)C(C)CC2(C)C` (centres unmarked) [compound 9, 1-(3,5,5,6,8,8-Hexamethyl-5,6,7,8-tetrahydro-naphthalen-2-yl)-2-(1-hex-3(Z)-enyloxy-ethoxy)-ethanone], the “UV-test” value in data set [1] was “+++”. Moreover, in data set [2], the “Stability at pH 2.5” value is “stable”, the “Stability at pH 7” value is recorded as “stable” and the “Stability at pH 9.5” value is “stable”. For the same compound, in data set [3], the “Stability at pH 11” value is “stable”, the Amount ecovered was 20.0 mg and the Recovered worked out at 96%. In data set [4], the “Amounts recovered: Water” value came to 15.3 mg; the “Amounts recovered: Water, % (±10%)” value was determined as 67%; the “Amounts recovered: Towel extract” value is given as 10.3 mg; the “Amounts recovered: Towel extract, % (±10%)” value came out at 45%.

Regarding `CCOC(C)OCC(=O)c1cc2c(cc1C)C(C)(C)C(C)CC2(C)C` (centres unmarked) [compound 10, 2-(1-Ethoxy-ethoxy)-1-(3,5,5,6,8,8-hexamethyl-5,6,7,8-tetrahydro-naphthalen-2-yl)-ethanone], in data set [1], the “UV-test” value is on record as “+++”.

`CCCCCCOC(C)OCC(=O)c1ccc2ccccc2c1` (centres unmarked) [compound 11, 2-(1-Hexyloxy-ethoxy)-1-naphthalen-2-yl-ethanone]: in data set [1], the “UV-test” value is “+”.

For `CC(C)=CCCC(C)CCOC(C)OCC(=O)c1ccc2ccccc2c1` (centres unmarked) [compound 12, 2-[1-(3,7-Dimethyl-oct-6-enyloxy)-ethoxy-]1-naphthalen-2-yl-ethanone], the “UV-test” value in data set [1] is reported as “+”.

Consider `COc1ccc(C(=O)COC(Cc2ccccc2)OC)cc1` (centres unmarked) [compound 15, 1-(4-Methoxy-phenyl)-2-(1-methoxy-2-phenyl-ethoxy)-ethanone], for which the “UV-test” value in data set [1] is reported as “++”.
